The values below come from patent US3931188A, “3-Hydroxy-5,6-benzomorphinan derivatives” (Bristol-Myers Company, priority 1974, dated 1976).

The test system of data set [1] is Straub Tail induced by oxymorphone. In words: Oxymorphone Straub Tail antagonism (antagonist activity). Format: in vivo, mouse. As to conditions: for ED50: sc, mouse, subcutaneous, hydrochloride salts of IX and X, oxymorphone 2 mg./kg. s.c. As for the experimental part: ^2 Antagonism of Straub Tail induced by oxymorphone (2 mg./kg. s.c.)
Data set [2] is described as follows: Behavioral studies in the dog. The data set is classed as in vivo. As to conditions: subcutaneous dose of 2 mg./kg. The procedure:
The normal parenteral dosage of the compounds of this invention in adult humans is about 0.25 to 16 mg. three to four times a day.

For data set [3], the system named is analgesic effect induced by morphine. The data set is described as follows: Morphine antagonist rat tail flick (antagonist activity). As to conditions: for ED50: Rattus norvegicus, sc, read-out: ED50 Antagonist Activity, Morphine Antagonist Rat Tail Flick.
Data set [4] deals with phenylquinone induced writhing. The data set is described as follows: Mouse phenylquinone writhing (analgesic activity). As to conditions: for analgesic potency relative to pentazocine: in words, compared with pentazocine; for ED50: sc, mouse, subcutaneous, hydrochloride salts of IX and X, 50 percent reduction in number of writhings. The data set is classed as in vivo. The source says: ^1 A 50 percent reduction in number of phenylquinone induced writhing
[Siegmumd, E.A., et al., Proc. Soc. Biol. & Med 95, p. 729 (1957)].
On the technique in general: In writhing tests, fewer writhes than in controls are read as antinociception.

For data set [5] the following is noted: Chemical Abstracts 63, 18050-18051 (Belgian Pat. No. 644,679); cited from earlier work.
The conditions of data set [6]: Chemical Abstracts 63, 18050-18051 (Belgian Pat. No. 644,679); cited from earlier work. This is another data set of the same source.
For data set [7] the following is noted: monkey; J. Med. Chem. 12, 845-847 (1969); cited from earlier work.
For data set [8] the following is noted: J. Med. Chem. 12, 845-847 (1969); cited from earlier work.

Molecules are shown by their SMILES.

`Oc1ccc2c(c1)[C@]13CCN(CC4CC4)[C@H](C2)[C@@H]1CCc1ccccc13` (relative stereo) [IX, 3-Hydroxy-17-cyclopropylmethyl-5,6-benzomorphinan]: the ED50 (usually the midpoint of the dose-response relation) is around 40 mg/kg in data set [1], 2.3 mg/kg in data set [3] and around 4.5 mg/kg in data set [4]. Further, in data set [1] (test not given), the “antagonist activity (in words)” value is “little antagonist activity”. For the same compound, in data set [2], the “side effects in behavioral studies” value was “free of side effects”. The “analgesic potency relative to pentazocine” value in data set [4] is listed as “about the same analgesic potency as pentazocine”.

In the case of `Oc1ccc2c(c1)[C@]13CCN(CC4CCC4)[C@H](C2)[C@@H]1CCc1ccccc13` (relative stereo) [X, 3-Hydroxy-17-cyclobutylmethyl-5,6-benzomorphinan], in data set [1], the ED50 is above 40 mg/kg. Also, in data set [2], the “side effects in behavioral studies” value is “free of side effects”. The “times more active as an antagonist in the rat than pentazocine” value in data set [3] (rat, relative to pentazocine) is reported as “approximately 5 times”. Further, in data set [4], the “analgesic potency relative to pentazocine” value is reported as “about the same analgesic potency as pentazocine” and the ED50 is around 4.5 mg/kg.

As for `Oc1ccc2c(c1)[C@@]13CCCC[C@H]1[C@@H](C2)N(CC1CCC1)CC3` (stereo in doubt) [N-cyclobutylmethyl-3-hydroxymorphinan], the “analgesic activity (in words)” value in data set [5] is given as “analgesics”. The “antagonism to meperidine (in words)” value in data set [6] was “antagonists to meperidine”.

Regarding `NC(=O)N1CCC2CC1Cc1ccc(O)cc12` (centres unmarked) [3-carboxamido-1,2,3,4,5,6-hexahydro-2,6-methano-3-benzazocin-8-ol], in data set [7], the “physical dependence capacity (in words)” value is listed as “unusual freedom from physical dependence capacity in the monkey”. Also, the “analgetic effect, oral (in words)” value in data set [8] is listed as “orally effective analgetic”.

For `Oc1ccc2c(c1)[C@@]13CCCC[C@H]1[C@@H](C2)N(CC1CC1)CC3` [N-cyclopropylmethyl-3-hydroxymorphinan], in data set [5], the “analgesic activity (in words)” value is “analgesics”. For the same compound, in data set [6], the “antagonism to meperidine (in words)” value is “antagonists to meperidine”.

Turning to `CC(C)=CCN1CCC2(C)c3cc(O)ccc3CC1C2C` (centres unmarked) [Pentazocine, reference compound], the ED50 in data set [1] came out at 12 mg/kg; in data set [3] it was 12.2 mg/kg; in data set [4], 3.7 mg/kg.
